Where two headings read alike, the source gives them in different places.
Columns and labels:
human IRAK-4 = molecular target: T1, human IRAK-4 (Homo sapiens, UniProt Q9NWZ3); experiment: Phosphorylation IC50 determination for human IRAK-4 (ADP-Glo kinase assay); assay type: biochemical; details: RIP140 substrate, Km ATP, read-out: IRAK4 IC50
T1 construct: purchased Carna Biosciences 09 145
T1 sequence (Q9NWZ3 1-460): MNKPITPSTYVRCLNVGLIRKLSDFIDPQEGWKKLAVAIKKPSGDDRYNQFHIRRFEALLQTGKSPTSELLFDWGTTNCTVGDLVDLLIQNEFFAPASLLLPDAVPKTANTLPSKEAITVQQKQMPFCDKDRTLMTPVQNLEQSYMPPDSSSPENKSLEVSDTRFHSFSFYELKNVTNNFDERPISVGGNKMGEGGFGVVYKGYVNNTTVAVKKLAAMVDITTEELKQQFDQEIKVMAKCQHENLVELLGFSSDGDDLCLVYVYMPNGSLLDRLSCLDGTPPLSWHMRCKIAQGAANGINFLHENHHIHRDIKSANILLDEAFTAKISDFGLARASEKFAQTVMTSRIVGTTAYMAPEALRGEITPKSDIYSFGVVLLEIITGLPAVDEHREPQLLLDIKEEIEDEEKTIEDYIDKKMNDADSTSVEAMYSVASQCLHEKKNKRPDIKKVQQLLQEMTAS
Description: 3.1. Phosphorylation IC50 Determination for Human IRAK-4
The phosphorylation of the substrate RIP140 (SEQ IDi1) by IRAK4 at Km ATP was detected with the ADP-Glo Kinase Assay (Promega, Cat #V9103), a luminescent kinase assay which measures the ADP formed from a kinase reaction. (Zegzouti et al., 2009) In a second step the kinase reaction is terminated and all the remaining ATP was depleted. In a final step the ADP was converted into ATP and this newly synthesized ATP was measured by using a luciferase/luciferin reaction with a luminescent reader. The luminescent signal positively correlated with kinase activity, in particular kinase inhibition giving a decrease of the luminescent signal.
For the semi-automated assay, the positive control (100% inhibition) was prepared by diluting 10 mM staurosporine stock mixture (20 μL) in water (3.8 mL) and DMSO (180 μL), thus resulting in a […] staurosporine solution at 1% DMSO (final concentration after further dilution in the kinase reaction).
For the automated assay, no pre-dilution of the 10 mM staurosporine stock was made. 10 mM staurosporine was spotted directly in the assay plate using acoustic dispensing and complemented with DMSO to result in a similar final concentration as mentioned above.
For the semi-automated assay, the negative control (0% inhibition) was prepared by mixing water (3.8 mL) and DMSO (200 μL) resulting in a final concentration of 1% DMSO after further dilution in the kinase reaction. For the automated assay no pre-dilution of DMSO was done. 100% DMSO was spotted directly on the assay plate.
The assay buffer solution was prepared at a concentration corresponding to 5 fold the final (most diluted) assay concentration by mixing a solution of 125 mM TRIS pH 7.5+0.05% Triton X-100+2.5 mM EGTA (5.27 mL) with 1M MgCl2 (72 μL), 1M DTT (57.6 μL), and 200 mM MnCl2 (360 μL).
For example, for the semi-automated method, the enzyme-substrate mixture was prepared by mixing water (3999 μL), assay buffer solution (1380 μL), 1 mM RIP140 (138 μL—SEQ ID1), and 200 ng/mL IRAK 4 (3.45 μL Carna Biosciences, 09 145).
For semi-automated method, the ATP mixture was prepared at a concentration corresponding to 2.5 fold the final (most diluted) assay concentration of the semi-automated method and 1.5 fold the final (most diluted) assay concentration of the automated method. For example, for the semi-automated method, the ATP mixture was prepared by mixing water (4126 μL), assay buffer solution (1380 μL), and 10 mM ATP (13.80 μL).
The assay was performed either in a semi-automated or fully automated manner. The assay volume and the incubation time of the ADP detection were different accordingly the method used.
3.1.3.1. Semi-Automated Assay
The compounds were prepared as a serial dilution of 10 point dose responses with 1/5 dilution steps in 100% DMSO starting from 2 mM highest concentration, diluted 1/20 in water. 1 μL was transferred dry to the assay plates.
On each assay plate 32 wells of each control (positive & negative) were added, followed by 2 μL enzyme-substrate mixture.
The reaction was started by adding 2 μL diluted ATP (final concentration Km ATP) on the assay plates. Plates were centrifuged for a few seconds at 1000 rpm followed by an incubation at r.t. for 120 min.
The reactions were stopped and the unconsumed ATP was depleted by adding 5 μL ADP-glo Reagent (Promega, Cat #V9103) to the reaction. The plates were quickly centrifuged at 1000 rpm and incubated at r.t. for 40 min corresponding to full ATP depletion.
The ADP was converted back to ATP and luciferase and luciferin were introduced to detect ATP by adding 10 μL kinase detection reagent (Promega, Cat #V9103) to the reaction. The plates were centrifuged for a few seconds at 1000 rpm and incubated at r.t. for a further 30 min.
Luminescent read out was performed on an Envision luminescent reader (Perkin Elmer). […]

[1] = test system: CL097 triggered TNFα release in human whole blood; experiment: Ex vivo human TNFα release inhibition (human whole blood assay); assay type: cell-based; details: Homo sapiens, CL097 2 μg/mL, 3 h 30 min at 37° C.
Text: (§1) 4.10.1. Ex Vivo Human IFNα and TNFα Release Inhibition (Human Whole Blood Assay)
(§2) The aim of the assay is to evaluate the activity of compounds of the invention on the activated TLR/IRAK-4 pathway in an ex vivo human whole blood setting. Toll-like receptors (TLRs) are pattern recognition receptors that recognize a wide variety of microbial molecules, called pathogen-associated molecular patterns (PAMPs). Human TLR7 and TLR8 recognize imidazoquinoline compounds (e.g., CL097—CAS n #1026249-18-2) and single stranded RNAs as their natural ligands. Activation of TLRs leads to the production of several cytokines (e.g., IFNα, TNFα, IL-8, IL-6) by the TLR agonist-treated cells, whereas IRAK4 leads to the production of IFNα. Cytokine release is used as readout in this assay and represents a measure for the level of inhibition of the TLR/IRAK-4 pathway by the tested compound. It should be noted that in the context of the complete organism, other sources for these cytokines exist that are not dependent on the TLR/IRAK-4 pathway, such as e.g., macrophages (upon activation of the Fcγ receptor (Yan et al., 2012)) or T cells (upon activation of the T cell receptor (Brehm et al., 2005)).
(§3) 4.10.1.1. Experimental Design
(§4) Blood was collected from healthy volunteers into lithium heparin tubes by venipuncture, then gently inverted several times to prevent clotting and incubated for at least 15 min at 37° C. on a rocking mixer shaker. Then, 100 μL of blood was dispensed into polypropylene 96-well microplate and pre-incubated in duplicate with 0.3% DMSO or test compound at different concentrations (from 30 to 0.01 μM, 3-fold dilutions to get 0.3% DMSO at the final) for 15 min at 37° C. After this pre-incubation, blood was triggered with CL097 (2 μg/mL from 1 mg/mL solution in water; InvivoGen, tlrl-c97) for 3 h 30 min at 37° C. Microtubes were centrifuged at 5000×g for 10 min at 4° C. and approximately 40 μL of plasma were collected into a polystyrene 96-well plate. Plasma could be analyzed freshly, within 30 min after triggering, or frozen at −80° C. Finally, the quantification of TNFα and IFNα were performed in the plasma using AlphaLISA Kit for TNFα and IFNα according to the manufacturer's instructions and read on the Ensight (PerkinElmer).
For each blood sample, the TNFα concentrations of the samples were determined from the fit. Data were then expressed a percentage of inhibition PIN for each replicate using the formula:
With mean TNFα with CL097=mean TNFα concentration of replicate samples triggered with CL097; TNFαsample1=TNFα concentration of sample 1; mean TNFα with vehicle=mean TNFα concentration of replicate samples treated with vehicle.
(§5) Curve fitting for pIC50 determination were generated using mean PIN±sem. Graphs and pIC50 calculations were derived using Prism 5.03 software (GraphPad).

[2] = test system: CL097 triggered IFNα release in human whole blood; experiment: Ex vivo human IFNα release inhibition (human whole blood assay); assay type: cell-based; details: Homo sapiens, CL097 2 μg/mL, 3 h 30 min at 37° C.
Text: as §1, §2, §3, §4
A standard curve was created by plotting on log-log the mean […] on the y-axis against the concentration on the x-axis and a 4-parameters logistic regression (4PL) was made through the points. For each blood sample, the IFNα concentrations of the samples were determined from the fit. Data were then expressed as a percentage of inhibition (PIN) for each replicate using the formula:
With mean IFNα with CL097=mean IFNα concentration of replicate samples triggered with CL097; IFNαsample1=IFNα concentration of sample 1; mean IFNα with vehicle=mean IFNα concentration of replicate samples treated with vehicle.
as §5

Thermodynamic solubility = assay type: physicochemical; details: 37 °C, thermodynamic from solid
Text: 4.2. Thermodynamic Solubility
Poor solubility, in particular poor thermodynamic solubility can limit the absorption of compounds from the gastrointestinal tract which in turn may reduce oral bioavailability.
Thermodynamic solubility investigates the solubility of a compound as a saturated solution in equilibrium, by opposition to kinetic solubility, which measures the solubility of a metastable solution where supersaturation may occur and provide over estimation of the actual solubility of the compound. (Klein, 2010)
4.2.2. Thermodynamic Solubility—Protocol 2
In a 8 mL glass vial, 1-2 mg of dry matter of compound were added and stirred with the suitable buffers (Fed State Simulated Intestine Fluid, FeSSIF, or Fasted State Simulated Intestine Fluid, FaSSIF, or Fasted State Simulated Gastric Fluid, FaSSGF, or phosphate buffer pH 7.4) for 24 h at r.t. (for the buffer pH 7.4) or 37° C. (for the GI fluids). The concentration of the mixture was 1 mg/mL.
A volume of 1000 μL were sampled, centrifuged for 10 min at 10 000 rpm and 500 μL of the supernatant were filtered on captiva plate. The samples were diluted in duplicates in DMSO (F100 and F10). Then, a final dilution (F100) in 80/20 H2O/MeCN containing the internal standard (warfarin) was used for LCMS-MS analysis.
A standard curve was made starting from a 40,000 ng/mL stock in DMSO, freshly prepared from dry matter. Then, successive concentrations at 15,000, 11,000, 6,000, 2,500, 1,000, 375, 150 and 75 ng/mL in DMSO were prepared.
Three quality control samples were made: one of 10,000, 1,500 and 200 ng/mL in DMSO, also starting from the DMSO working stock solution at 40,000 ng/mL.
The standard curve and quality controls were diluted a F100 in 80/20 H2O/MeCN (with internal standard) and analyzed on LC/MS-MS (API4000 or API5500).
The samples were analyzed on LC-MS with a flow rate of 0.6 mL/min. The mobile phase A was 0.1% formic acid in water and the mobile phase B was 0.1% formic acid in 90% MeCN and 10% of H2O. The sample was run under positive or negative ion spray on Pursuit C18—5 μm (2.0×20 mm) column, from Agilent.
The ratio analyte/internal standard peaks areas of the standard curve were plotted in a graph and a linear or polynomial of the second order equation was used to calculate the unknown concentrations of the test compound.
Solubility values were reported in μg/mL.

IC50 (human IRAK-4) [nM] | IC50 [1] [nM] | IC50 [2] [nM] | solubility thermodynamic at 24 h (Thermodynamic solubility; Fasted State Simulated Gastric Fluid (FaSSGF), fassgf or other biorelevant, Fasted State Simulated Gastric Fluid, read-out: Tsol FaSSGF) [µg/mL] | solubility thermodynamic at 24 h (Thermodynamic solubility; Fasted State Simulated Intestine Fluid (FaSSIF), fassif, Fasted State Simulated Intestine Fluid, read-out: Tsol FaSSIF) [µg/mL] | SMILES
0.1 to 5 |  |  |  |  | NC(=O)c1cn2nc(C3CCOCC3)cc2cc1NC(=O)c1cccc(C(F)(F)F)n1 [Compound 11, 2-tetrahydropyran-4-yl-5-[[6-(trifluoromethyl)pyridine-2-carbonyl]amino]pyrazolo[1,5-a]pyridine-6-carboxamide]
5 to 10 | 0.1 to 500 | 500 to 1000 |  |  | COc1cn2nc(CCS(C)(=O)=O)cc2cc1NC(=O)c1cccn(C2CC2)c1=O [Compound 6, 1-cyclopropyl-N-[6-methoxy-2-(2-methylsulfonylethyl)pyrazolo[1,5-a]pyridin-5-yl]-2-oxo-pyridine-3-carboxamide]
5 to 10 |  |  | < 0.75 | < 0.75 | CNC(=O)c1cn2nc(C3CCOCC3)cc2cc1NC(=O)c1cccc(C(F)(F)F)n1 [Compound 14, N-methyl-2-tetrahydropyran-4-yl-5-[[6-(trifluoromethyl)pyridine-2-carbonyl]amino]pyrazolo[1,5-a]pyridine-6-carboxamide]
